Assays:
[1] = Toxicity in mouse CD4+ T cells assessed as induction of IL5 at 1000 ng/ml; format: cell-based; details: t-cell
[2] = Toxicity in mouse CD4+ T cells assessed as induction of IL5 at 500 ng/ml; format: cell-based; details: t-cell
[3] = system: K562; test: Cytotoxicity against human K562 cells by MTT assay; format: functional, cell-based
[4] = system: Mus musculus; test: Toxicity in ip dosed mouse relative to roridin A; format: organism-based; details: in vivo
[5] = Toxicity in ip dosed mouse; format: organism-based; details: in vivo
[6] = Toxicity in mouse CD4+ T cells assessed as induction of IL5 at 100 ng/ml; format: cell-based; details: t-cell
[7] = Toxicity in mouse CD4+ T cells assessed as induction of IL5 at 1.0 ng/ml; format: cell-based; details: t-cell
[8] = Toxicity in mouse CD4+ T cells assessed as induction of IL5 at 0.05 ng/ml; format: cell-based; details: t-cell

SMILES	EC50 [3] [nM]	Activity [4]	other results
CC(=O)O[C@@H]1C[C@]2(C)[C@@]3(CO)[C@H](O)C(=O)C(C)=C[C@H]3O[C@H]1[C@@]21CO1 [3-ACETYLDEOXYNIVALENOL]	–	–	Activity [1]: Toxic
CC(=O)OC[C@]12[C@H](O)C(=O)C(C)=C[C@H]1O[C@@H]1[C@H](O)C[C@@]2(C)[C@]12CO2 [15-ACETYLDEOXYNIVALENOL]	–	–	Activity [2]: Toxic
CC(=O)OC[C@]12CCC(C)=C[C@H]1O[C@@H]1[C@H](O)[C@@H](OC(C)=O)[C@@]2(C)[C@]12CO2 [ANGUIDIN]	2.7	23	–
CC1=C[C@H]2O[C@@H]3[C@H](O)C[C@](C)([C@@]2(CO)[C@H](O)C1=O)[C@]31CO1 [DEOXYNIVALENOL]	1010	4	LD50 [5]: 70 mg/kg; Activity [6]: Toxic
CC(=O)OC[C@]12C[C@H](OC(=O)CC(C)C)C(C)=C[C@H]1O[C@@H]1[C@H](O)[C@@H](O)[C@@]2(C)[C@]12CO2 [HT-2 TOXIN]	47.1	9	–
CC(=O)OC[C@]12C[C@H](O)C(C)=C[C@H]1O[C@@H]1[C@H](O)[C@@H](OC(C)=O)[C@@]2(C)[C@]12CO2 [NEOSOLANIOL]	392	0.5	–
CC1=C[C@H]2O[C@@H]3[C@H](O)[C@@H](O)[C@](C)([C@@]2(CO)[C@H](O)C1=O)[C@]31CO1 [NIVALENOL]	960	–	LD50 [5]: 4.1 mg/kg; Activity [6]: Toxic
CC1=C[C@H]2O[C@@H]3C[C@@H]4OC(=O)/C=C/C=C/COCC/C([C@@H](O)[C@H](C)O)=C/C(=O)OC[C@@]2(CC1)[C@]4(C)[C@]31CO1 [SATRATOXIN H]	–	1	–
CC(=O)OC[C@]12C[C@H](OC(=O)CC(C)C)C(C)=C[C@H]1O[C@@H]1[C@H](O)[C@@H](OC(C)=O)[C@@]2(C)[C@]12CO2 [T-2 TOXIN]	2.1	3	Activity [7]: Toxic
CC1=C[C@H]2O[C@@H]3C[C@H]4OC(=O)/C=C\C=C\C(=O)OCC[C@@H](C)[C@H](O)C(=O)OC[C@@]2(CC1)[C@]4(C)[C@]31CO1 [VERRUCARIN A]	–	1.5	Activity [8]: Toxic
